Series [1] can be described thus: Muscular strength tests: hip abduction and flexion, Nicholas Manual Muscle Tester. It counts as in vivo, patients. From the text: (§1) The association of increased levels of 3MGA with statin myopathy was discovered in a study of four patients identified among the first 20 patients randomly assigned in an ongoing, unfunded, doubleblinded, crossover clinical trial that had been approved by an investigational review board. Patients who had muscle symptoms during statin therapy that resolved when they were not receiving statins for 2 weeks were recruited from a clinical research group. Eligible patients had to have normal creatine kinase levels while they were experiencing symptoms. End points were 1) whether patients could accurately identify blinded statin therapy, 2) standard measures of functional capacity and muscle strength, 3) standard measures of biochemical properties of blood, urine and muscle specimens and 4) analysis of muscle biopsy for pathology. The muscular strength tests during both placebo use and statin therapy included hip abduction and flexion measured by Nicholas Manual Muscle Tester (Lafayette Instrument Co., Lafayette, Ind.) The standard measures for biochemical alterations included blood, urine and muscle biopsy analysis for levels of endogenous factors and drug. Analysis of muscle biopsy for pathology included general histology of the samples and detection of various markers involved in metabolism.

Series [2] is described as follows: Serum creatine kinase level during statin therapy. Particulars: normal range 0-3.26 μkat/L. Type of series: in vivo, patients.
Source text: as §1
The creatine kinase level remained normal in these patients every time they became myopathic both before and during the trial. The presence of a normal creatine kinase level has previously been used to argue against myopathy in patients with muscle symptoms during statin therapy.

The nature of series [3]: Urine organic acid analysis for 3-methylglutaconic acid (3MGA). It counts as in vivo, patients.
Another series in a line: Statin level in patients. It counts as in vivo.
Source text: as §1
All four patients in the study had normal statin levels (TABLE 1).

Series [4] can be described thus: Clinical muscle symptoms during statin therapy. Type of series: in vivo, patients.
Source text: as §1

The nature of series [5]: Muscle biopsy pathology (histology, metabolic markers). Type of series: in vivo, patients. Particulars: Patient 3; during atorvastatin therapy.
Source text: as §1, with “metabolism. […]” for “metabolism.”

[6] abbreviates: Patient 1, Cerivistatin 0.4 mg/d listed first.
Where [7] appears, read: Patient 1, 4 years of simvastatin therapy, brief trial of atorvastatin.
The mark [8] stands for this setting: Patient 2, lovastatin 40 mg/d, simvastatin added to niacin.
Setting [9] is: Patient 3, Atorvastatin 20 mg/d.
Where [10] appears, read: Patient 4, atorvastatin 10 mg/d.

As for `COCc1c(C(C)C)nc(C(C)C)c(/C=C/[C@@H](O)C[C@@H](O)CC(=O)O)c1-c1ccc(F)cc1` [Cerivistatin], in series [1] (setting [6]), the “Hip Abduction (Strength) On Statin” value was found to be 4.1 kg and the “Hip Flexion (Strength) On Statin” value was determined as 8.0 kg. Also, the “Creatine Kinase Level during Statin Therapy” value in series [2] (Patient 1) worked out at 0.63 μkat/L. In series [3] (Patient 1, normal range 0-9 mmol/mol creatinine), the “3-Methylglutaconic acid levels On Statin” value is 21 mmol/mol.
Turning to `CCC(C)(C)C(=O)O[C@H]1C[C@@H](C)C=C2C=C[C@H](C)[C@H](CC[C@@H]3C[C@@H](O)CC(=O)O3)[C@H]21` [Simvastatin], the “Hip Abduction (Strength) On Statin” value in series [1] (Patient 2, Simvastatin 40 mg/d) was 11.6 kg. Also, the “Hip Flexion (Strength) On Statin” value in series [1] (Patient 2, Simvastatin 40 mg/d) is 9.6 kg. For the same molecule, the “Statin Level” value in the series “Statin level in patients” (Patient 1) was 1.4 (Sim- ngEq/cm^3; in the series “Statin level in patients” (Patient 2, Simvastatin 40 mg/d) it was 16.3 (Sim- ngEq/cm^3. Moreover, the “Creatine Kinase Level during Statin Therapy” value in series [2] (Patient 2, Simvastatin 40 mg/d) was 0.73 μkat/L. Further, the “3-Methylglutaconic acid levels On Statin” value in series [3] (Patient 2, Simvastatin 40 mg/d, normal range 0-9 mmol/mol creatinine) is recorded as 11 mmol/mol. The “Muscle symptoms during therapy” value is “muscle aches and decreased exercise tolerance” in series [4] (setting [7]); “muscle aches, weakness, and shortness of breath with exertion” in series [4] (setting [8]).
With `CC[C@H](C)C(=O)O[C@H]1C[C@@H](C)C=C2C=C[C@H](C)[C@H](CC[C@@H]3C[C@@H](O)CC(=O)O3)[C@H]21` [lovastatin], the “Muscle symptoms during therapy” value in series [4] (setting [8]) is “muscle pains and weakness”.
On to `CC(C)c1c(C(=O)Nc2ccccc2)c(-c2ccccc2)c(-c2ccc(F)cc2)n1CC[C@@H](O)C[C@@H](O)CC(=O)O` [Atorvastatin], for which the entries for the “Hip Abduction (Strength) On Statin” value in series [1] (setting [9]) and in series [1] (setting [10]) were 6.3 kg and 12.9 kg, respectively. Further, the “Hip Flexion (Strength) On Statin” value is on record as 14.3 kg in series [1] (setting [9]) and 24.1 kg in series [1] (setting [10]). For the same molecule, the “Statin Level” value in “Statin level in patients” (setting [9]) is reported as 10.9 (Ator- ngEq/cm^3. Further, the “Creatine Kinase Level during Statin Therapy” value in series [2] (setting [9]) came to 2.30 μkat/L; in series [2] (Patient 4, Atorvastatin 10 mg/d), 1.39 μkat/L. Also, the “Muscle biopsy findings during therapy” value in series [5] was “increased lipid droplets, ragged red fibers, and cytochrome oxidase—negative muscle fibers”. Moreover, the “Muscle symptoms during therapy” value is “Symptoms did not change” in series [4] (setting [7]); “aching and weakness of the shoulder, hip, and thigh” in series [4] (Patient 3, atorvastatin 20 mg/d for 2 years); “leg aches when climbing stairs” in series [4] (setting [10]). Also, the “Time to onset of leg aches” value in series [4] (setting [10]) is recorded as at most 2 weeks.

The values above are taken from patent US20030224470A1, “Method of diagnosing statin myopathy” (priority 2002, published 2003).
